Measured values published in patent US7138361B2, “Herbicidal heterocycles” (E. I. du Pont de Nemours and Company, priority 2000, dated 2006).

Columns and labels:
Assay in all cases: Test C postemergence
Type in all cases: in vivo
[1] = system: crabgrass (Digitaria sanguinalis)
In short: (§1)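 Response scores (0 no effect to 100 complete control) came from visual comparison with untreated controls 12 to 14 days after treatment. Preemergence application was made to seeded soil; postemergence, to plants at the 1- to 4-leaf stage.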

[2] = system: bermudagrass (Cynodon dactylon)
In short: as §1

kochia (Kochia scoparia) = system: kochia (Kochia scoparia)
In short: as §1

[3] = system: giant foxtail (Setaria faberii)
In short: as §1

[4] = system: chickweed (Stellaria media)
In short: as §1

[5] = system: pigweed (Amaranthus retroflexus)
In short: as §1

[6] = system: woolly cupgrass (Eriochloa villosa)
In short: as §1

[7] = system: Surinam grass (Brachiaria decumbens)
In short: as §1

[8] = system: cocklebur (Xanthium strumarium)
In short: as §1

[9] = system: lambsquarters (Chenopodium album)
In short: as §1

[10] = system: velvetleaf (Abutilon theophrasti)
In short: as §1

soybean (Glycine max) = system: soybean (Glycine max)
In short: as §1

[11] = system: goosegrass (Eleusine indica)
In short: as §1

[12] = system: johnsongrass (Sorghum halepense)
In short: as §1

corn (Zea mays) = system: corn (Zea mays)
In short: as §1

[13] = system: yellow nutsedge (Cyperus esculentus)
In short: as §1

[14] = system: common ragweed (Ambrosia elatior)
In short: as §1

[15] = Rate 125 g/ha, scale 0 to 100, 0 no effect, 100 complete control
[16] = Rate 250 g/ha, scale 0 to 100 (0 no effect, 100 complete control)
[17] = Rate 500 g/ha, scale 0 to 100 (0 no effect, 100 complete control)
[18] = Rate 62 g/ha, scale 0 to 100, 0 no effect, 100 complete control

## CC(C)(C)c1ccn(C2SCN(c3cccc(OC(F)(F)F)c3)C2=O)n1 (stereo not drawn) [Compound 30]
[1]; [15]
  Plant response rating, Crabgrass: 30
[1]; [16]
  Plant response rating, Crabgrass: 30
[1]; [17]
  Plant response rating, Crabgrass: 90
[2]; [18]
  Plant response rating, Bermudagrass: 70
[2]; [15]
  Plant response rating, Bermudagrass: 80
[2]; [16]
  Plant response rating, Bermudagrass: 80
[2]; [17]
  Plant response rating, Bermudagrass: 90
Kochia (Kochia scoparia); [15]
  Plant response rating, Kochia: 70
Kochia (Kochia scoparia); [16]
  Plant response rating, Kochia: 70
Kochia (Kochia scoparia); [17]
  Plant response rating, Kochia: 90
[3]; [15]
  Plant response rating, Foxtail, Giant: 0
[3]; [16]
  Plant response rating, Foxtail, Giant: 30
[3]; [17]
  Plant response rating, Foxtail, Giant: 80
[4]; [18]
  Plant response rating, Chickweed: 50
[4]; [15]
  Plant response rating, Chickweed: 60
[4]; [16]
  Plant response rating, Chickweed: 70
[4]; [17]
  Plant response rating, Chickweed: 90
[5]; [15]
  Plant response rating, Pigweed: 80
[5]; [16]
  Plant response rating, Pigweed: 90
[5]; [17]
  Plant response rating, Pigweed: 100
[6]; [15]
  Plant response rating, Cupgrass, Woolly: 30
[6]; [16]
  Plant response rating, Cupgrass, Woolly: 40
[6]; [17]
  Plant response rating, Cupgrass, Woolly: 80
[7]; [18]
  Plant response rating, Surinam grass: 0
[7]; [15]
  Plant response rating, Surinam grass: 0
[7]; [16]
  Plant response rating, Surinam grass: 0
[7]; [17]
  Plant response rating, Surinam grass: 60
[8]; [15]
  Plant response rating, Cocklebur: 30
[8]; [16]
  Plant response rating, Cocklebur: 30
[8]; [17]
  Plant response rating, Cocklebur: 50
[9]; [15]
  Plant response rating, Lambsquarters: 90
[9]; [16]
  Plant response rating, Lambsquarters: 90
[9]; [17]
  Plant response rating, Lambsquarters: 90
[10]; [15]
  Plant response rating, Velvetleaf: 30
[10]; [16]
  Plant response rating, Velvetleaf: 50
[10]; [17]
  Plant response rating, Velvetleaf: 60
Soybean (Glycine max); [15]
  Plant response rating, Soybean: 0
Soybean (Glycine max); [16]
  Plant response rating, Soybean: 0
Soybean (Glycine max); [17]
  Plant response rating, Soybean: 0
[11]; [15]
  Plant response rating, Goosegrass: 0
[11]; [16]
  Plant response rating, Goosegrass: 30
[11]; [17]
  Plant response rating, Goosegrass: 40
[12]; [15]
  Plant response rating, Johnsongrass: 0
[12]; [16]
  Plant response rating, Johnsongrass: 0
[12]; [17]
  Plant response rating, Johnsongrass: 90
Corn (Zea mays); [15]
  Plant response rating, Corn: 20
Corn (Zea mays); [16]
  Plant response rating, Corn: 30
Corn (Zea mays); [17]
  Plant response rating, Corn: 40
[13]; [15]
  Plant response rating, Nutsedge: 0
[13]; [16]
  Plant response rating, Nutsedge: 0
[13]; [17]
  Plant response rating, Nutsedge: 0

## CCOc1cc(N2CCC(n3ccc(C(C)(C)C)n3)C2=O)ccc1C (stereo not drawn) [Compound 106]
[1]; Rate 31 g/ha, scale 0 to 100
  Plant response rating, Crabgrass: 0
[1]; Rate 62 g/ha, scale 0 to 100
  Plant response rating, Crabgrass: 0
[1]; [15]
  Plant response rating, Crabgrass: 0
[1]; [16]
  Plant response rating, Crabgrass: 0
[2]; Rate 31 g/ha, scale 0 to 100
  Plant response rating, Bermudagrass: 0
[2]; Rate 62 g/ha, scale 0 to 100
  Plant response rating, Bermudagrass: 0
[2]; [15]
  Plant response rating, Bermudagrass: 0
[2]; [16]
  Plant response rating, Bermudagrass: 20
Kochia (Kochia scoparia); Rate 31 g/ha, scale 0 to 100
  Plant response rating, Kochia: 70
Kochia (Kochia scoparia); Rate 62 g/ha, scale 0 to 100
  Plant response rating, Kochia: 70
Kochia (Kochia scoparia); [15]
  Plant response rating, Kochia: 90
Kochia (Kochia scoparia); [16]
  Plant response rating, Kochia: 100
[3]; Rate 31 g/ha, scale 0 to 100
  Plant response rating, Foxtail, Giant: 0
[3]; Rate 62 g/ha, scale 0 to 100
  Plant response rating, Foxtail, Giant: 0
[3]; [15]
  Plant response rating, Foxtail, Giant: 0
[3]; [16]
  Plant response rating, Foxtail, Giant: 10
[14]; Rate 62 g/ha, scale 0 to 100
  Plant response rating, Ragweed, Common: 0
[14]; [15]
  Plant response rating, Ragweed, Common: 90
[5]; Rate 31 g/ha, scale 0 to 100
  Plant response rating, Pigweed: 70
[5]; Rate 62 g/ha, scale 0 to 100
  Plant response rating, Pigweed: 70
[5]; [15]
  Plant response rating, Pigweed: 80
[5]; [16]
  Plant response rating, Pigweed: 80
[6]; Rate 31 g/ha, scale 0 to 100
  Plant response rating, Cupgrass, Woolly: 0
[6]; Rate 62 g/ha, scale 0 to 100
  Plant response rating, Cupgrass, Woolly: 10
[6]; [15]
  Plant response rating, Cupgrass, Woolly: 30
[6]; [16]
  Plant response rating, Cupgrass, Woolly: 40
[7]; Rate 31 g/ha, scale 0 to 100
  Plant response rating, Surinam grass: 0
[7]; Rate 62 g/ha, scale 0 to 100
  Plant response rating, Surinam grass: 0
[7]; [15]
  Plant response rating, Surinam grass: 0
[7]; [16]
  Plant response rating, Surinam grass: 0
[8]; Rate 31 g/ha, scale 0 to 100
  Plant response rating, Cocklebur: 30
[8]; Rate 62 g/ha, scale 0 to 100
  Plant response rating, Cocklebur: 30
[8]; [15]
  Plant response rating, Cocklebur: 80
[8]; [16]
  Plant response rating, Cocklebur: 90
[9]; Rate 31 g/ha, scale 0 to 100
  Plant response rating, Lambsquarters: 80
[9]; Rate 62 g/ha, scale 0 to 100
  Plant response rating, Lambsquarters: 80
[9]; [15]
  Plant response rating, Lambsquarters: 80
[9]; [16]
  Plant response rating, Lambsquarters: 100
[10]; Rate 31 g/ha, scale 0 to 100
  Plant response rating, Velvetleaf: 30
[10]; Rate 62 g/ha, scale 0 to 100
  Plant response rating, Velvetleaf: 60
[10]; [15]
  Plant response rating, Velvetleaf: 60
[10]; [16]
  Plant response rating, Velvetleaf: 70
Soybean (Glycine max); Rate 31 g/ha, scale 0 to 100
  Plant response rating, Soybean: 70
Soybean (Glycine max); Rate 62 g/ha, scale 0 to 100
  Plant response rating, Soybean: 70
Soybean (Glycine max); [15]
  Plant response rating, Soybean: 70
Soybean (Glycine max); [16]
  Plant response rating, Soybean: 80
[11]; Rate 31 g/ha, scale 0 to 100
  Plant response rating, Goosegrass: 0
[11]; Rate 62 g/ha, scale 0 to 100
  Plant response rating, Goosegrass: 0
[11]; [15]
  Plant response rating, Goosegrass: 0
[11]; [16]
  Plant response rating, Goosegrass: 10
[12]; Rate 31 g/ha, scale 0 to 100
  Plant response rating, Johnsongrass: 0
[12]; Rate 62 g/ha, scale 0 to 100
  Plant response rating, Johnsongrass: 0
[12]; [15]
  Plant response rating, Johnsongrass: 0
[12]; [16]
  Plant response rating, Johnsongrass: 0
Corn (Zea mays); Rate 31 g/ha, scale 0 to 100
  Plant response rating, Corn: 0
Corn (Zea mays); Rate 62 g/ha, scale 0 to 100
  Plant response rating, Corn: 0
Corn (Zea mays); [15]
  Plant response rating, Corn: 0
Corn (Zea mays); [16]
  Plant response rating, Corn: 20
[13]; Rate 31 g/ha, scale 0 to 100
  Plant response rating, Nutsedge: 0
[13]; Rate 62 g/ha, scale 0 to 100
  Plant response rating, Nutsedge: 0
[13]; [15]
  Plant response rating, Nutsedge: 0
[13]; [16]
  Plant response rating, Nutsedge: 0

## Cc1ccc(N2CCC(n3ccc(C(C)(C)C)n3)C2=O)cc1OCCCl (stereo not drawn) [Compound 109]
[1]; Rate 31 g/ha, scale 0 to 100
  Plant response rating, Crabgrass: 0
[1]; Rate 62 g/ha, scale 0 to 100
  Plant response rating, Crabgrass: 0
[1]; [16]
  Plant response rating, Crabgrass: 0
[2]; Rate 31 g/ha, scale 0 to 100
  Plant response rating, Bermudagrass: 0
[2]; Rate 62 g/ha, scale 0 to 100
  Plant response rating, Bermudagrass: 0
[2]; [15]
  Plant response rating, Bermudagrass: 10
[2]; [16]
  Plant response rating, Bermudagrass: 20
Kochia (Kochia scoparia); Rate 31 g/ha, scale 0 to 100
  Plant response rating, Kochia: 80
Kochia (Kochia scoparia); Rate 62 g/ha, scale 0 to 100
  Plant response rating, Kochia: 80
Kochia (Kochia scoparia); [16]
  Plant response rating, Kochia: 90
[3]; Rate 31 g/ha, scale 0 to 100
  Plant response rating, Foxtail, Giant: 0
[3]; Rate 62 g/ha, scale 0 to 100
  Plant response rating, Foxtail, Giant: 0
[3]; [16]
  Plant response rating, Foxtail, Giant: 0
[14]; Rate 31 g/ha, scale 0 to 100
  Plant response rating, Ragweed, Common: 0
[14]; Rate 62 g/ha, scale 0 to 100
  Plant response rating, Ragweed, Common: 0
[5]; Rate 31 g/ha, scale 0 to 100
  Plant response rating, Pigweed: 70
[5]; Rate 62 g/ha, scale 0 to 100
  Plant response rating, Pigweed: 70
[5]; [16]
  Plant response rating, Pigweed: 70
[6]; Rate 31 g/ha, scale 0 to 100
  Plant response rating, Cupgrass, Woolly: 0
[6]; Rate 62 g/ha, scale 0 to 100
  Plant response rating, Cupgrass, Woolly: 0
[6]; [16]
  Plant response rating, Cupgrass, Woolly: 0
[7]; Rate 31 g/ha, scale 0 to 100
  Plant response rating, Surinam grass: 0
[7]; Rate 62 g/ha, scale 0 to 100
  Plant response rating, Surinam grass: 0
[7]; [15]
  Plant response rating, Surinam grass: 0
[7]; [16]
  Plant response rating, Surinam grass: 0
[8]; Rate 31 g/ha, scale 0 to 100
  Plant response rating, Cocklebur: 0
[8]; Rate 62 g/ha, scale 0 to 100
  Plant response rating, Cocklebur: 40
[9]; Rate 31 g/ha, scale 0 to 100
  Plant response rating, Lambsquarters: 70
[9]; Rate 62 g/ha, scale 0 to 100
  Plant response rating, Lambsquarters: 70
[9]; [16]
  Plant response rating, Lambsquarters: 100
[10]; Rate 31 g/ha, scale 0 to 100
  Plant response rating, Velvetleaf: 20
[10]; Rate 62 g/ha, scale 0 to 100
  Plant response rating, Velvetleaf: 40
[10]; scale 0 to 100
  Plant response rating, Velvetleaf: 70
Soybean (Glycine max); Rate 31 g/ha, scale 0 to 100
  Plant response rating, Soybean: 60
Soybean (Glycine max); Rate 62 g/ha, scale 0 to 100
  Plant response rating, Soybean: 70
Soybean (Glycine max); [16]
  Plant response rating, Soybean: 70
[11]; Rate 31 g/ha, scale 0 to 100
  Plant response rating, Goosegrass: 0
[11]; Rate 62 g/ha, scale 0 to 100
  Plant response rating, Goosegrass: 0
[11]; [16]
  Plant response rating, Goosegrass: 10
[12]; Rate 31 g/ha, scale 0 to 100
  Plant response rating, Johnsongrass: 0
[12]; Rate 62 g/ha, scale 0 to 100
  Plant response rating, Johnsongrass: 0
[12]; [16]
  Plant response rating, Johnsongrass: 0
[12]; rate not given, scale 0 to 100
  Plant response rating, Johnsongrass: 0
Corn (Zea mays); Rate 31 g/ha, scale 0 to 100
  Plant response rating, Corn: 0
Corn (Zea mays); Rate 62 g/ha, scale 0 to 100
  Plant response rating, Corn: 0
Corn (Zea mays); scale 0 to 100
  Plant response rating, Corn: 40
[13]; Rate 31 g/ha, scale 0 to 100
  Plant response rating, Nutsedge: 0
[13]; Rate 62 g/ha, scale 0 to 100
  Plant response rating, Nutsedge: 0
[13]; [16]
  Plant response rating, Nutsedge: 0
